Experimental data: US20170190671A1, “BIS(ARYL)CATECHOL DERIVATIVES AS HERBICIDES” (E I DU PONT DE NEMOURS AND COMPANY, priority 2014, published 2017)

Experiments:
Format in all cases: in vivo
Conditions in all cases: scale 0 to 100
[1] = tested on: horseweed (Conyza canadensis); assay: Test E preemergence
Summary of the method: (§1)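 Preemergence: seeds in silt loam treated with compound in non-phytotoxic solvent with surfactant. Postemergence: plants at 1- to 4-leaf stage (2–18 cm) in peat-based medium sprayed likewise. Greenhouse 14–21 days, then visual rating vs controls, 0 (no effect) to 100 (complete control).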

[2] = tested on: johnsongrass (Sorghum halepense); assay: Test E preemergence
Summary of the method: as §1

[3] = tested on: Italian ryegrass (Lolium multiflorum); assay: Test E postemergence
Summary of the method: as §1

corn (Zea mays) = assay: Test E postemergence
Summary of the method: as §1

[4] = tested on: fall panicum (Panicum dichotomiflorum); assay: Test E postemergence
Summary of the method: as §1

[5] = tested on: field bindweed (Convolvulus arvensis); assay: Test E postemergence
Summary of the method: as §1

[6] = tested on: hairy beggarticks (Bidens pilosa); assay: Test E postemergence
Summary of the method: as §1

[7] = tested on: palmer pigweed (Amaranthus palmeri); assay: Test E postemergence
Summary of the method: as §1

[8] = tested on: ragweed (common ragweed, Ambrosia elatior); assay: Test E postemergence
Summary of the method: as §1

[9] = tested on: waterhemp_RES1 (ALS & Triazine resistant common waterhemp, Amaranthus rudis); assay: Test E postemergence
Summary of the method: as §1

Structure (SMILES): N#Cc1cccc(Oc2ncc(Cl)cn2)c1Oc1ncc(C(F)(F)F)cn1 [Compound 38, 3-[(5-chloro-2-pyrimidinyl)oxy]-2-[[5-(trifluoromethyl)-2-pyrimidinyl]oxy]-benzonitrile]
- Plant response rating, Horseweed ([1]; 16 g ai/ha): 0
- Plant response rating, Horseweed ([1]; 31 g ai/ha): 0
- Plant response rating, Horseweed ([1]; 62 g ai/ha): 100
- Plant response rating, Horseweed ([1]; 125 g ai/ha): 98
- Plant response rating, Johnsongrass ([2]; 16 g ai/ha): 0
- Plant response rating, Johnsongrass ([2]; 31 g ai/ha): 0
- Plant response rating, Johnsongrass ([2]; 62 g ai/ha): 100
- Plant response rating, Johnsongrass ([2]; 125 g ai/ha): 95
- Plant response rating, Ryegrass, Italian ([3]; 16 g ai/ha): 0
- Plant response rating, Ryegrass, Italian ([3]; 31 g ai/ha): 5
- Plant response rating, Ryegrass, Italian ([3]; 62 g ai/ha): 10
- Plant response rating, Ryegrass, Italian ([3]; 125 g ai/ha): 15
- Plant response rating, Corn (corn (Zea mays); 16 g ai/ha): 0
- Plant response rating, Corn (corn (Zea mays); 31 g ai/ha): 0
- Plant response rating, Corn (corn (Zea mays); 62 g ai/ha): 15
- Plant response rating, Corn (corn (Zea mays); 125 g ai/ha): 20
- Plant response rating, Panicum, Fall ([4]; 16 g ai/ha): 10
- Plant response rating, Panicum, Fall ([4]; 31 g ai/ha): 10
- Plant response rating, Panicum, Fall ([4]; 62 g ai/ha): 10
- Plant response rating, Field Bindweed ([5]; 16 g ai/ha): 60
- Plant response rating, Field Bindweed ([5]; 31 g ai/ha): 65
- Plant response rating, Field Bindweed ([5]; 62 g ai/ha): 80
- Plant response rating, Field Bindweed ([5]; 125 g ai/ha): 85
- Plant response rating, Beggarticks ([6]; 16 g ai/ha): 35
- Plant response rating, Beggarticks ([6]; 31 g ai/ha): 40
- Plant response rating, Beggarticks ([6]; 62 g ai/ha): 40
- Plant response rating, Beggarticks ([6]; 125 g ai/ha): 50
- Plant response rating, Pigweed, Palmer ([7]; 16 g ai/ha): 60
- Plant response rating, Pigweed, Palmer ([7]; 31 g ai/ha): 75
- Plant response rating, Pigweed, Palmer ([7]; 62 g ai/ha): 60
- Plant response rating, Pigweed, Palmer ([7]; 125 g ai/ha): 90
- Plant response rating, Ragweed ([8]; 16 g ai/ha): 20
- Plant response rating, Ragweed ([8]; 31 g ai/ha): 20
- Plant response rating, Ragweed ([8]; 62 g ai/ha): 40
- Plant response rating, Ragweed ([8]; 125 g ai/ha): 50
- Plant response rating, Waterhemp_RES1 ([9]; 16 g ai/ha): 80
- Plant response rating, Waterhemp_RES1 ([9]; 31 g ai/ha): 90
- Plant response rating, Waterhemp_RES1 ([9]; 62 g ai/ha): 90
- Plant response rating, Waterhemp_RES1 ([9]; 125 g ai/ha): 95
